Measured values published in PubChem BioAssay AID1259407 (Chemical Carcinogenesis Research Information System (CCRIS), 2018).
Activity calls are given as the source filed them. The rule behind the calls is not given here.

Test system: CCRIS mutagenicity, Ames/micronucleus/aberration tests
Assay: CCRIS mutagenicity studies

Measured: mutagenic call

O=c1n(Cl)c(=O)n(Cl)c(=O)n1Cl
inactive: Test System: AMES SALMONELLA TYPHIMURIUM, Strain/Indicator: TA98, Metabolic Activation: NONE, Method: PREINCUBATION inactive; negative | Test System: AMES SALMONELLA TYPHIMURIUM, Strain/Indicator: TA98, Metabolic Activation: RAT LIVER S-9, PHENOBARBITAL AND BETA-NAPHTHOFLAVONE, Method: PREINCUBATION inactive; negative | Test System: AMES SALMONELLA TYPHIMURIUM, Strain/Indicator: TA98, Metabolic Activation: RAT, LIVER, S-9, KC 500, Method: PREINCUBATION inactive; negative | Test System: AMES SALMONELLA TYPHIMURIUM, Strain/Indicator: TA100, Metabolic Activation: NONE, Method: PREINCUBATION inactive; negative | Test System: AMES SALMONELLA TYPHIMURIUM, Strain/Indicator: TA100, Metabolic Activation: RAT LIVER S-9, PHENOBARBITAL AND BETA-NAPHTHOFLAVONE, Method: PREINCUBATION inactive; negative | Test System: AMES SALMONELLA TYPHIMURIUM, Strain/Indicator: TA100, Metabolic Activation: RAT, LIVER, S-9, KC 500, Method: PREINCUBATION inactive; negative | Test System: AMES SALMONELLA TYPHIMURIUM, Strain/Indicator: TA1535, Metabolic Activation: NONE, Method: PREINCUBATION inactive; negative | Test System: AMES SALMONELLA TYPHIMURIUM, Strain/Indicator: TA1535, Metabolic Activation: RAT LIVER S-9, PHENOBARBITAL AND BETA-NAPHTHOFLAVONE, Method: PREINCUBATION inactive; negative | Test System: AMES SALMONELLA TYPHIMURIUM, Strain/Indicator: TA1535, Metabolic Activation: RAT, LIVER, S-9, KC 500, Method: PREINCUBATION inactive; negative | Test System: AMES SALMONELLA TYPHIMURIUM, Strain/Indicator: TA1537, Metabolic Activation: NONE, Method: PREINCUBATION inactive; negative | Test System: AMES SALMONELLA TYPHIMURIUM, Strain/Indicator: TA1537, Metabolic Activation: RAT LIVER S-9, PHENOBARBITAL AND BETA-NAPHTHOFLAVONE, Method: PREINCUBATION inactive; negative | Test System: AMES SALMONELLA TYPHIMURIUM, Strain/Indicator: TA1537, Metabolic Activation: RAT, LIVER, S-9, KC 500, Method: PREINCUBATION inactive; negative | Test System: AMES SALMONELLA TYPHIMURIUM, Strain/Indicator: TA1538, Metabolic Activation: NONE, Method: PREINCUBATION inactive; negative | Test System: AMES SALMONELLA TYPHIMURIUM, Strain/Indicator: TA1538, Metabolic Activation: RAT LIVER S-9, PHENOBARBITAL AND BETA-NAPHTHOFLAVONE, Method: PREINCUBATION inactive; negative | Test System: AMES SALMONELLA TYPHIMURIUM, Strain/Indicator: TA1538, Metabolic Activation: RAT, LIVER, S-9, KC 500, Method: PREINCUBATION inactive; negative | Test System: E. COLI, Strain/Indicator: WP2 UVRA, Metabolic Activation: NONE, Method: PREINCUBATION inactive; negative | Test System: E. COLI, Strain/Indicator: WP2UVRA, Metabolic Activation: NONE, Method: PREINCUBATION inactive; negative | Test System: E. COLI, Strain/Indicator: WP2UVRA, Metabolic Activation: RAT LIVER S-9, PHENOBARBITAL AND BETA-NAPHTHOFLAVONE, Method: PREINCUBATION inactive; negative | Test System: E. COLI, Strain/Indicator: WP2 UVRA, Metabolic Activation: RAT, LIVER, S-9, KC 500, Method: PREINCUBATION inactive; negative

CC1=C(C(=O)OCCN(Cc2ccccc2)c2ccccc2)C(c2cccc([N+](=O)[O-])c2)C(P2(=O)OCC(C)(C)CO2)=C(C)N1 (stereo not drawn)
inactive: Test System: AMES SALMONELLA TYPHIMURIUM, Strain/Indicator: TA98, Metabolic Activation: NONE inactive; negative | Test System: AMES SALMONELLA TYPHIMURIUM, Strain/Indicator: TA98, Metabolic Activation: RAT, LIVER, S-9, PHENOBARBITAL AND 5,6-BENZOFLAVONE inactive; negative | Test System: AMES SALMONELLA TYPHIMURIUM, Strain/Indicator: TA100, Metabolic Activation: NONE inactive; negative | Test System: AMES SALMONELLA TYPHIMURIUM, Strain/Indicator: TA100, Metabolic Activation: RAT, LIVER, S-9, PHENOBARBITAL AND 5,6-BENZOFLAVONE inactive; negative | Test System: AMES SALMONELLA TYPHIMURIUM, Strain/Indicator: TA1535, Metabolic Activation: NONE inactive; negative | Test System: AMES SALMONELLA TYPHIMURIUM, Strain/Indicator: TA1535, Metabolic Activation: RAT, LIVER, S-9, PHENOBARBITAL AND 5,6-BENZOFLAVONE inactive; negative | Test System: AMES SALMONELLA TYPHIMURIUM, Strain/Indicator: TA1537, Metabolic Activation: NONE inactive; negative | Test System: AMES SALMONELLA TYPHIMURIUM, Strain/Indicator: TA1537, Metabolic Activation: RAT, LIVER, S-9, PHENOBARBITAL AND 5,6-BENZOFLAVONE inactive; negative | Test System: E.COLI, Strain/Indicator: WP2 UVRA, Metabolic Activation: NONE inactive; negative
